Results as given in patent publication US12459951B2, “Compounds that interact with RAS superfamily proteins for treatment of cancers, inflammatory diseases, rasopathies, and fibrotic disease” (SHY Therapeutics, LLC, priority 2022, dated 2025).

Assays:
cdc42 = molecular target: T1, cdc42 (Homo sapiens, UniProt P60953); assay: Cdc42 GTP Binding Domain Inhibition Assay; conditions: read-out: Cdc42: % inh.
T1 construct: made in house
Method: Protocol for Cdc42 and Rheb GTP Binding Domain Inhibition Assay
The following method was developed as specific assay for cdc42 and Rheb proteins.
• 25 mM Tris-HCl, pH 7.4 • 27 mM KCl • 137 mM NaCl • 1 mM MgCl2 • 1 mM DTT Buffer-II: • 50 mM Tris-HCl, pH 7.0 • 1 mM MgCl2 • 1 mM DTT
The small GTPases proteins cdc42 and Rheb were expressed as His-tagged proteins. For the assay, the cdc42 and Rheb purified small GTPases proteins were diluted in Buffer-I or Buffer-II to a final concentration of 10-30 μg/mL. 200 μL of each diluted protein was added to a nickel-coated 96-well plate and incubated overnight at […]. Then the protein solution was discarded and 200 μL of Buffer-I or Buffer-II was added to each well in the presence of 1% DMSO. Compounds to be tested were added to the protein-coated wells at final concentration of 20 μM, and incubated for 3 hours at room temperature with and without 10-30 μg/mL of Sos added to the final hour of the incubation. When performing IC50 measurements a serial dilution of all tested concentrations was added. Then Cy3-GTP or Cy5-GTP was added to each well to a final concentration of 100 nM. The labeled GTP was incubated for 45 minutes at room temperature. Following GTP incubation, wells were washed 3× in Buffer-I or Buffer-II and 200 μL of Buffer-I or Buffer-II was added to each well. Following washes, the amount of bound labeled-GTP was measured using a SpectraMax M3 (Molecular Devices).

JNK phosphorylation = assay: JNK Activation Assay (western blot), Panc-1; format: cell-based, human; conditions: at 10 μM, Panc-1 pancreatic cancer cell line; starred symbols = activation
How it was run: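 KRas G12C Panc-1 cells treated 6 h at 37 °C with compound at 10 μM (0.3% DMSO), or serial dilutions for IC50. In Method 1 cells were serum-starved overnight (0.5% FBS) then stimulated with 1.5 ng/ml EGF for 15 min; Method 2 used 10% FBS without stimulation. Phospho-JNK (Thr183/Tyr185) measured by western blot.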

MAPK p38 phosphorylation = assay: MAPK p38 Activation Assay (western blot), Panc-1; format: cell-based, human; conditions: at 10 μM, Panc-1 pancreatic cancer cell line; starred symbols = activation
How it was run: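 Panc-1 cells (KRas G12D) were treated with compound for 6 h at 37 °C, at 10 μM or as serial dilutions for IC50, with 0.3% DMSO. Method 1 used overnight serum-starved cells (0.5% FBS) stimulated with 1.5 ng/ml EGF for 15 min; Method 2 used unstimulated cells in 10% FBS. Phospho-p38 (Thr180/Tyr182) was detected by western blot.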

T1 sequence (P60953 whole entry, the tested form may be a part): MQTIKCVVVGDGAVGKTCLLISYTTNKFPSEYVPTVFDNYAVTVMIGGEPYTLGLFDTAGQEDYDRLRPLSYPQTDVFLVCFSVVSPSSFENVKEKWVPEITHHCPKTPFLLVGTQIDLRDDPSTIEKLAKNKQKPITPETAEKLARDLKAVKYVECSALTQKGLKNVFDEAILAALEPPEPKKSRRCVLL

inhibition at 20 µM (cdc42) [%]	Structure (SMILES)	% inh of JNK in Panc-1 (JNK phosphorylation)	% inh of MAPK p38 in Panc-1 (MAPK p38 phosphorylation)
1 to 25	COc1cccc(-c2cn3nc(-c4nccn4C)nc(N[C@@H]4CC[C@@H](OC)C4)c3c2-c2ccccc2)c1F (racemic) [Compound 43, rac 6-(2-Fluoro-3-methoxyphenyl)-N-((1R,3R)-3-methoxycyclopentyl)-2-(1-methyl-1H-imidazol-2-yl)-5-phenylpyrrolo[2,1-f][1,2,4]triazin-4-amine]	H* (H* ≥ 100% activation)	H* (H* ≥ 100% activation)
50 to 75	COc1cccc(-c2cn3nc(-c4nccn4C)nc(N[C@@H]4CC[C@@H](OC)C4)c3c2-c2ccccn2)c1F (racemic) [Compound 46, rac 6-(2-Fluoro-3-methoxyphenyl)-N-((1R,3R)-3-methoxycyclopentyl)-2-(1-methyl-1H-imidazol-2-yl)-5-(pyridin-2-yl)pyrrolo[2,1-f][1,2,4]triazin-4-amine]	H* (H* ≥ 100% activation)	H (H = 100% inhibition)
1 to 25	COc1cccc(-c2cn3nc(-c4nccn4C)nc(N[C@H]4C[C@H](OC)C4)c3c2-c2ccccc2)c1Cl [Compound 32, 6-(2-Chloro-3-methoxyphenyl)-N-((1r,3r)-3-methoxycyclobutyl)-2-(1-methyl-1H-imidazol-2-yl)-5-phenylpyrrolo[2,1-f][1,2,4]triazin-4-amine]	H (H = 100% inhibition)	H (H = 100% inhibition)
1 to 25	COc1cccc(-c2cn3nc(-c4nccn4C)nc(N[C@H]4C[C@H](OC)C4)c3c2-c2ccccc2)c1F [Compound 42, 6-(2-Fluoro-3-methoxyphenyl)-N-((1r,3r)-3-methoxycyclobutyl)-2-(1-methyl-1H-imidazol-2-yl)-5-phenylpyrrolo[2,1-f][1,2,4]triazin-4-amine]	H* (H* ≥ 100% activation)	H* (H* ≥ 100% activation)
26 to 49	COCCO[C@H]1C[C@H](Nc2nc(-c3nccn3C)nn3cc(-c4cccc(OC)c4F)c(-c4ccccc4)c23)C1 [Compound 44, 6-(2-Fluoro-3-methoxyphenyl)-N-((1r,3r)-3-(2-methoxyethoxy)cyclobutyl)-2-(1-methyl-1H-imidazol-2-yl)-5-phenylpyrrolo[2,1-f][1,2,4]triazin-4-amine]	H* (H* ≥ 100% activation)	H* (H* ≥ 100% activation)
26 to 49	COc1cccc(-c2cn3nc(-c4nccn4C)nc(N[C@H]4C[C@H](OC)C4)c3c2-c2ccccn2)c1F [Compound 45, 6-(2-Fluoro-3-methoxyphenyl)-N-((1r,3r)-3-methoxycyclobutyl)-2-(1-methyl-1H-imidazol-2-yl)-5-(pyridin-2-yl)pyrrolo[2,1-f][1,2,4]triazin-4-amine]	H* (H* ≥ 100% activation)	H* (H* ≥ 100% activation)
1 to 25	COc1cccc(-c2cn3nc(-c4nccn4C)nc(N[C@H]4C[C@H](OC)C4)c3c2-c2ccn(C)n2)c1F [Compound 47, 6-(2-Fluoro-3-methoxyphenyl)-N-((1r,3r)-3-methoxycyclobutyl)-2-(1-methyl-1H-imidazol-2-yl)-5-(1-methyl-1H-pyrazol-3-yl)pyrrolo[2,1-f][1,2,4]triazin-4-amine]	H* (H* ≥ 100% activation)	F (F = 31-74% inhibition)
50 to 75	COc1cc(Nc2nc(-c3nccn3C)nn3cc(-c4ccn(C(C)C)n4)c(C)c23)n[nH]1 [Compound 51, 6-(1-Isopropyl-1H-pyrazol-3-yl)-N-(5-methoxy-1H-pyrazol-3-yl)-5-methyl-2-(1-methyl-1H-imidazol-2-yl)pyrrolo[2,1-f][1,2,4]triazin-4-amine]	H* (H* ≥ 100% activation)	H* (H* ≥ 100% activation)
1 to 25	Cc1c(-c2ccn(C(C)C)n2)cn2nc(-c3nccn3C)nc(Nc3ccncc3)c12 [Compound 52, 6-(1-Isopropyl-1H-pyrazol-3-yl)-5-methyl-2-(1-methyl-1H-imidazol-2-yl)-N-(pyridin-4-yl)pyrrolo[2,1-f][1,2,4]triazin-4-amine]	0 (0 = 0% inhibition)	F* (F* = 31-74% activation)
50 to 75	COc1ccnc(Nc2nc(-c3nccn3C)nn3cc(-c4ccn(C(C)C)n4)c(C)c23)n1 [Compound 53, 6-(1-Isopropyl-1H-pyrazol-3-yl)-N-(4-methoxypyrimidin-2-yl)-5-methyl-2-(1-methyl-1H-imidazol-2-yl)pyrrolo[2,1-f][1,2,4]triazin-4-amine]	H* (H* ≥ 100% activation)	H* (H* ≥ 100% activation)
50 to 75	Cc1c(-c2ccn(C(C)C)n2)cn2nc(-c3nccn3C)nc(Nc3ncccn3)c12 [Compound 54, 6-(1-Isopropyl-1H-pyrazol-3-yl)-5-methyl-2-(1-methyl-1H-imidazol-2-yl)-N-(pyrimidin-2-yl)pyrrolo[2,1-f][1,2,4]triazin-4-amine]	H* (H* ≥ 100% activation)	H* (H* ≥ 100% activation)
50 to 75	Cc1c(-c2ccn(C(C)C)n2)cn2nc(-c3nccn3C)nc(Nc3ccncn3)c12 [Compound 55, 6-(1-Isopropyl-1H-pyrazol-3-yl)-5-methyl-2-(1-methyl-1H-imidazol-2-yl)-N-(pyrimidin-4-yl)pyrrolo[2,1-f][1,2,4]triazin-4-amine]	H* (H* ≥ 100% activation)	H* (H* ≥ 100% activation)
26 to 49	COc1cnc(Nc2nc(-c3nccn3C)nn3cc(-c4ccn(C(C)C)n4)c(C)c23)nc1 [Compound 56, 6-(1-Isopropyl-1H-pyrazol-3-yl)-N-(5-methoxypyrimidin-2-yl)-5-methyl-2-(1-methyl-1H-imidazol-2-yl)pyrrolo[2,1-f][1,2,4]triazin-4-amine]	H* (H* ≥ 100% activation)	H* (H* ≥ 100% activation)
76 to 100	Cc1c(-c2ccn(C(C)C)n2)cn2nc(-c3nccn3C)nc(Nc3ccccn3)c12 [Compound 57, 6-(1-Isopropyl-1H-pyrazol-3-yl)-5-methyl-2-(1-methyl-1H-imidazol-2-yl)-N-(pyridin-2-yl)pyrrolo[2,1-f][1,2,4]triazin-4-amine]	H* (H* ≥ 100% activation)	E* (E* = 1-30% activation)
76 to 100	COc1ccnc(Nc2nc(-c3nccn3C)nn3cc(-c4ccn(C(C)C)n4)c(C)c23)c1 [Compound 58, 6-(1-Isopropyl-1H-pyrazol-3-yl)-N-(4-methoxypyridin-2-yl)-5-methyl-2-(1-methyl-1H-imidazol-2-yl)pyrrolo[2,1-f][1,2,4]triazin-4-amine]	H* (H* ≥ 100% activation)	G* (G* = 75-99% activation)
50 to 75	Cc1c(-c2ccn(C(C)C)n2)cn2nc(-c3nccn3C)nc(Nc3nnco3)c12 [Compound 59, N-(6-(1-Isopropyl-1H-pyrazol-3-yl)-5-methyl-2-(1-methyl-1H-imidazol-2-yl)pyrrolo[2,1-f][1,2,4]triazin-4-yl)-1,3,4-oxadiazol-2-amine]	H* (H* ≥ 100% activation)	H* (H* ≥ 100% activation)
1 to 25	Cc1c(-c2ccn(C(C)C)n2)cn2nc(-c3nccn3C)nc(Nc3ncco3)c12 [Compound 60, N-(6-(1-Isopropyl-1H-pyrazol-3-yl)-5-methyl-2-(1-methyl-1H-imidazol-2-yl)pyrrolo[2,1-f][1,2,4]triazin-4-yl)oxazol-2-amine]	H* (H* ≥ 100% activation)	H* (H* ≥ 100% activation)
0	COc1ccc(Nc2nc(-c3nccn3C)nn3cc(-c4ccn(C(C)C)n4)c(C)c23)nn1 [Compound 74, 6-(1-Isopropyl-1H-pyrazol-3-yl)-N-(6-methoxypyridazin-3-yl)-5-methyl-2-(1-methyl-1H-imidazol-2-yl)pyrrolo[2,1-f][1,2,4]triazin-4-amine]		
